Source: US9597408B2, “Peptide-mediated non-covalent delivery of active agents across the blood-brain barrier” (Mayo Foundation for Medical Education and Research, priority 2009, dated 2017)
Where no end group is shown, it is not given here.

What was measured:
brain [1] = test: β-galactosidase delivery in brain, enzyme activity staining of brain slices; format: in vivo
Protocol: Required amount of the peptide and protein were mixed in a final volume of 300 μL PBS (phosphate buffered saline), and incubated at room temperature for 60 minutes. The mixture was vortexed for a few seconds, every fifteen minutes during the incubation period.
The mixture was injected intravenously as a bolus into the lumen of the femoral vein. This was accomplished using a heat pulled PE50 catheter. At the conclusion of the experiment, the mouse was euthanized with a lethal dose of sodium pentobarbital. Each mouse was perfused with 10 mL PBS. This perfusion was accomplished through the standard trans cardial method. The brain was removed from the skull and positioned to make an initial coronal slice at −2.0 mm bregma. Subsequently, 25 μm coronal sections were cut on a cryostat and placed on charged slides for staining of β-galactosidase activity.
Evaluation of β-galactosidase enzymatic activity was accomplished by an initial 15 minute fixation of the brain sections in 0.25% glutaraldehyde. The slides were washed with 3 changes of PBS for 5 minutes each and then rinsed in distilled water for 5 minutes. The brain sections were incubated in X-Gal (0.2%) working solution, pH 7.38, for 18 hours at 37° C. in covered containers. Following this incubation the sections were dehydrated and coverslips were applied.
To evaluate the potential of K16ApoE (SEQ ID NO: 22) for delivering a protein across the BBB, the enzyme β-galactosidase was injected in mice with or without prior mixing with K16ApoE (SEQ ID NO: 22) (at a protein to peptide molar ratio of 1:70). The experiment was repeated more than a dozen times. […] It is speculated that either X-gal or 5-bromo-4-chloroindole or both somehow leach out of this region faster than other regions of the brain resulting to a faint signal for β-galactosidase activity.

BBB [2] = test system: BBB; parameters: species or system mice; conditions: mouse, in vivo
Protocol: FIG. 8 illustrates the testing mutant ApoE peptides for their potential as non-covalent transporters of proteins across the BBB. A—no peptide, no β-gal; B—K16ApoE (SEQ ID NO: 22)+β-gal; C—K16L3N7 (SEQ ID NO: 126)+β-gal; D—K16L3L20 (SEQ ID NO: 127)+β-gal; E—K16N7L20 (SEQ ID NO: 128)+β-gal.
β-galactosidase was mixed with equal amounts of various peptide transporters and injected into mice. Slides were prepared using 25 μm sections of the mice brains one hour after injection followed by development of enzyme staining (FIG. 8).

mouse brain = test: microSPECT imaging of delivery of radioiodinated human IgG and IgM; format: in vivo
Protocol: Micro SPECT/CT experiments were conducted on a Gamma Medica X SPECT System (GE Healthcare). Human IgG (Sigma) and IgM (Sigma) were labeled to a high specific activity using the Chloramine-T method. […] Immediately subsequent to the intravenous bolus injection, the mice were imaged every hour for a total of 6 hours. At the completion of the 6 hour time point, each mouse was euthanized and the systemic blood supply was transcardially perfused with 10 mL phosphate buffered saline, and imaged after 30 minutes.
Since many potentially therapeutic proteins against brain-associated disorders are immunoglobulins, delivery of IgG and IgM through K16ApoE (SEQ ID NO: 22) in mouse brain was evaluated by micro-single photon emission computed tomography (microSPECT) imaging. For this, radioiodinated human IgG (Sigma, product # I 4506) and human IgM (Sigma, product # I 8260) were mixed with K16ApoE (SEQ ID NO: 22) and injected intravenously. Anesthetized animals were then subjected to imaging for 6 hours at 1 hour interval. Cardiac perfusion was then performed, after which final imaging was done at 30 minutes post-perfusion. Results from these experiments provide a number of indications (FIG. 4): First, it appears that peak delivery of both IgG and IgM into brain happens around 2 hours post-injection of the peptide-protein mix, after which uptake of the proteins in the brain remains relatively unchanged up to 6 hours (maximum time point tested). Second, cardiac perfusion appears to remove most of the radioactive protein in the vasculature, concomitantly increasing the difference between apparent brain-uptake of the protein with and without the carrier peptide (˜5-fold).

brain [3] = test system: brain; parameters: species or system mice; conditions: mouse, in vivo
Protocol: FIG. 1 is a series of images illustrating the differences between delivery of Alexa-IgG complexed to K16ApoE (SEQ ID NO: 22) into brain and uncomplexed Alexa-IgG.
In this experiment, AlexaIgG488 was injected into mice with or without mixing with K16ApoE peptide (SEQ ID NO:22). Brain sections were made 1 hour after delivery.

BBB [4] = test system: BBB; parameters: species or system mice; conditions: mouse, in vivo; remark: listed apart in the source
Protocol: Each mouse (represented by A through G) received an injection of K16ApoE (SEQ ID NO: 22), followed by injection of β-galactosidase at the indicated times. Brain slices were made 4 hours after β-galactosidase injection and were followed by staining for activity of the enzyme. A—β-galactosidase was injected 1 minute after K16ApoE (SEQ ID NO: 22) injection. B—β-galactosidase was injected 5 minutes after K16ApoE (SEQ ID NO: 22) injection. C—β-galactosidase was injected 10 minutes after K16ApoE (SEQ ID NO: 22) injection. D—β-galactosidase was injected 30 minutes after K16ApoE (SEQ ID NO: 22) injection. E—β-galactosidase was injected 1 hour after K16ApoE (SEQ ID NO: 22) injection. F—β-galactosidase was injected 2 hours after K16ApoE (SEQ ID NO: 22) injection. G—β-galactosidase was injected 4 hours after K16ApoE (SEQ ID NO: 22) injection. H—positive control (β-galactosidase mixed with K16ApoE (SEQ ID NO: 22) was injected, brain slices were made 4 hours after the injection and proceeded for staining for enzyme activity).
A transporter that efficiently carries a protein in the brain should not do so by impairing the integrity of the BBB. To evaluate if K16ApoE (SEQ ID NO: 22) impairs the integrity of the BBB, the peptide was first injected intravenously, then injected β-galactosidase at different time intervals. The control mice received the enzyme mixed with the peptide. […]

BBB [5] = test system: BBB; parameters: species or system mice; conditions: mouse, in vivo; remark: listed apart in the source
Protocol: The delivery of radiolabeled IgG across the BBB in different brain regions in mice with and without the peptide K16ApoE (SEQ ID NO:22) was evaluated. In addition, the integrity of the BBB after delivery of IgG with K16ApoE (SEQ ID NO: 22) was examined. […] of ^125I-IgG were mixed with varying amounts of the peptide K16ApoE (SEQ ID NO: 22) (0-55 μmol), and the mixture injected intravenously into the mice. ^131I-IgG not complexed with the peptide was injected into the same animals at 59 minutes and allowed to circulate for 1 minute subsequent to the initial femoral vein injection of ^125I-IgG+K16ApoE (SEQ ID NO: 22). Uptake of ^125I-IgG and ^131I-IgG were measured in different areas of the brain after 60 minutes.
PS values reflect the amount of ^125I-IgG that has crossed the BBB, whereas Vp values indicate the amount of ^131I-IgG at the BBB but which has not crossed the BBB.

BBB [6] = test: Necessity of covalent linking of K16 and ApoE moieties: β-galactosidase staining of brain sections; format: in vivo, mice; conditions: β-galactosidase mixed with the peptide(s); FIG. 7
Protocol: Delivery of β-galactosidase in brain with K16 peptide (SEQ ID NO: 4) alone (A), with ApoE peptide only (B), with K16 peptide (SEQ ID NO: 4)+ApoE peptide (C), and with K16APoE peptide (SEQ ID NO: 22) (D).
The necessity of covalent linking of the K16 (SEQ ID NO: 4) and ApoE (SEQ ID NO: 13) peptide moieties was evaluated for non-covalent transport of a protein across the BBB. For this, β-galactosidase was mixed with either the ApoE peptide, the peptide K16 (SEQ ID NO: 4), ApoE plus K16 (SEQ ID NO: 4) or with K16ApoE (SEQ ID NO: 22), and injected in mice.

Substance: β-galactosidase: Bacterial β-galactosidase purchased from Calbiochem, enzyme injected alone [reference compound]
- β-galactosidase activity in brain (brain [1]; protein to peptide molar ratio 1:70 or enzyme alone, slices 6 hours after injection, FIG. 3A): no activity

Substance: KKKKKKKKKKKKKKKKLRLRLASHLRKLRKRLLRDL [mutant B, KKKK KKKK KKKK KKKK LRLR LASH LRKL RKRL LRDL]
- transport of β-galactosidase compared with wild-type ApoE blood-brain barrier agent (BBB [2]): at least as well as wild-type or better

Substance: KKKKKKKKKKKKKKKKLRVRLASHLRKLRKRLLRDA [K16ApoE, KKKKKKKKKKKKKKKKLRVRLASHLRKLRKRLLRDA]
- share of the injected immunoglobulins transported into the brain (mouse brain; IgG and IgM, under the experimental condition): about 1%
- difference between brain-uptake of the protein with and without the carrier peptide (mouse brain; IgG and IgM, after cardiac perfusion): ~5 fold
- time of peak delivery of IgG and IgM into brain (mouse brain; post-injection of peptide-protein mix, 70-fold molar excess of peptide, FIG. 4): around 2 hours
- contrast and enhancement of brain structures compared to uncomplexed AlexaIgG488 (brain [3]): significantly brighter contrast and enhancement of brain structures
- effect of the peptide by itself on the BBB (BBB [4]): did not seem to affect the BBB
- time until binding of injected peptide to proteins and cells in the circulation is virtually complete (BBB [4]; iv): ≤ 10 min
- Vp values in all the brain regions examined (in words) (BBB [5]): virtually unchanged
- damage of the BBB due to prior exposure to the peptide (BBB [5]): not damaged
- areas of the brain reached by the delivered β-galactosidase (brain [1]; mouse, in vivo): virtually every area of the brain
- β-galactosidase activity in brain (brain [1]; mouse, in vivo): intense β-galactosidase activity

Substance: KKKKKKKKKKKKKKKKLRVRLANHLRKLRKRLLRDL [mutant C, KKKK KKKK KKKK KKKK LRVR LANH LRKL RKRL LRDL]
- transport of β-galactosidase compared with wild-type ApoE blood-brain barrier agent (BBB [2]): at least as well as wild-type or better

Substance: KKKKKKKKKKKKKKKK [K16, KKKKKKKKKKKKKKKK]
- β-galactosidase staining in brain sections (BBB [6]): β-galactosidase staining only in slides from mice receiving β-galactosidase mixed with K16ApoE

Substance: KKKKKKKKKKKKKKKKLRLRLANHLRKLRKRLLRDA [mutant A, KKKK KKKK KKKK KKKK LRLR LANH LRKL RKRL LRDA]
- transport of β-galactosidase compared with wild-type ApoE blood-brain barrier agent (BBB [2]): worse than the wild-type
